Experimental findings from paper PMC4065883 (European journal of medicinal chemistry, 2014) are described below.

A short description of one series: Peroxyl. Particulars: compound 1 mM, BMPO 10 mM.
Series [1] concerns the target T1, Acetylcholinesterase from bovine erythrocytes (Bos taurus, UniProt P23795).
T1 sequence (P23795 31-614 isoform P23795-2 limits assumed): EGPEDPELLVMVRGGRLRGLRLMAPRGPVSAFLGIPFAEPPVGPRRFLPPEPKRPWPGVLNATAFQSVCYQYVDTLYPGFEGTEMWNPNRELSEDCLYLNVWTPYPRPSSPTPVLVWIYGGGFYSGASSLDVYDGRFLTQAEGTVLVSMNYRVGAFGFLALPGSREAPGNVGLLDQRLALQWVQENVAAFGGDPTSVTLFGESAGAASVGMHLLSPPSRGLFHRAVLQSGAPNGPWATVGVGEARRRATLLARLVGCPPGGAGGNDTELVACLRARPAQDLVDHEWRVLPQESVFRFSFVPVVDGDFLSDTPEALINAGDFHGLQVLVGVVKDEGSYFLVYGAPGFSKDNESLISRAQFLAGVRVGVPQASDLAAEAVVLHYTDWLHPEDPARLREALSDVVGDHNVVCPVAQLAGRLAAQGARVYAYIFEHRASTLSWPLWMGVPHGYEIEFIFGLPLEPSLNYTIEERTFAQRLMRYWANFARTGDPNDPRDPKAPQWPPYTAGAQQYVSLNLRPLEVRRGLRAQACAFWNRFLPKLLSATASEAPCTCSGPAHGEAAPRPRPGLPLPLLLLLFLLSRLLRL
Format: biochemical.

A further series concerns MC65 cells. Particulars: MTT.
A short description of series [2]: ROS scavenging activity, radical type not specified, BMPO spin trap EPR. Particulars: compound 1 mM, BMPO 10 mM.
The nature of series [3]: Hydroxyl radical scavenging, BMPO spin trap EPR. Particulars: compound 1 mM, BMPO 10 mM.

Each structure is given as a SMILES string. “Also recorded” adds a separate entry of the source. Where two headings read alike, the source gives them in different places.

Regarding `CC1(C)CC(n2cc(CN3CCN(c4c5c(nc6ccccc46)CCCC5)CC3)nn2)CC(C)(C)N1[O]` [compound 12, 2,2,6,6-Tetramethyl-4-{4-[4-(1,2,3,4-tetrahydroacridin-9-yl)piperazin-1-ylmethyl]-1H-1,2,3-triazol-1-yl}piperidin-1-yloxyl Radical], the “peroxyl / superoxide radical scavenging activity (in words)” value in “Peroxyl” is listed as “excellent”. Also, the “AChEI activity (in words)” value in series [1] was “less AChEI activity than compound 1b; also recorded: active; also recorded: most efficient AChE inhibitors”. Also, the “protection against Aβ-induced cytotoxicity (in words)” value (from here on “protection”) in the series with MC65 cells is on record as “protection against Aβ-induced cytotoxicity; also recorded: remarkable cell protection”. In series [2], the “ROS scavenging activity (in words)” value is “remarkable ROS scavenging activity; also recorded: most efficient”.

With `Nc1c2c(nc3ccccc13)CCCC2` [1b, 9-amino-1,2,3,4-tetrahydroacridine, reference compound], the “peroxyl / superoxide radical scavenging activity (in words)” value in “Peroxyl” is listed as “limited; also recorded: lack peroxyl radical scavenging activity”. For the same compound, the “hydroxyl radical scavenging activity (in words)” value in series [3] is “limited”. Besides, in series [2], the “ROS scavenging activity (in words)” value was “no significant effect on the level of radical detected”.

Turning to `CC1(C)c2nc3ccccc3c(N)c2C(C)(C)N1[O]` [20b, 9-amino-1,1,3,3-tetramethyl-1H-pyrrolo[3,4-b]quinolin-2(3H)-yloxyl Radical], the figures for the “peroxyl / superoxide radical scavenging activity (in words)” value in “Peroxyl” and in the series “Peroxyl” (listed as 20) were “lack peroxyl radical scavenging activity” and “excellent”, respectively. Moreover, in the series with MC65 cells, the “protection” value is on record as “notable protective activity”.

For `C#CCN1CCN(c2c3c(nc4ccccc24)CCCC3)CC1` [compound 10, 9-[4-(prop-2-yn-1-yl)piperazin-1-yl]-1,2,3,4-tetrahydroacridine], the “peroxyl / superoxide radical scavenging activity (in words)” value in “Peroxyl” is “limited; also recorded: lack peroxyl radical scavenging activity”. Besides, the “AChEI activity (in words)” value in series [1] is listed as “less AChEI activity than compound 1b”. The “protection” value with MC65 cells is “do not provide any significant level of cell protection”. Further, the “hydroxyl radical scavenging activity (in words)” value in series [3] is “limited”.

Turning to `c1ccc2c(N3CCNCC3)c3c(nc2c1)CCCC3` [compound 7, 9-(Piperazin-1-yl)-1,2,3,4-tetrahydroacridine], the “peroxyl / superoxide radical scavenging activity (in words)” value in “Peroxyl” is recorded as “limited; also recorded: lack peroxyl radical scavenging activity”. Besides, the “protection” value in the series with MC65 cells is listed as “do not provide any significant level of cell protection”. Further, in series [3], the “hydroxyl radical scavenging activity (in words)” value is listed as “limited”.

On to `CC1(C)C=C(CNc2c3c(nc4ccccc24)CCCC3)C(C)(C)N1[O]` [4b, 2,2,5,5-Tetramethyl-3-[(1,2,3,4-tetrahydroacridin-9-yl)aminomethyl]-2,5-dihydro-1H-pyrrol-1-yloxyl Radical], for which the “peroxyl / superoxide radical scavenging activity (in words)” value in the series “Peroxyl” is “excellent”. In series [1], the “AChEI activity (in words)” value is “less AChEI activity than compound 1b”. Moreover, the “protection” value in the series on MC65 cells is “protection against Aβ-induced cytotoxicity”. The “ROS scavenging activity (in words)” value in series [2] is “remarkable ROS scavenging activity”.

Turning to `CC1(C)C=C(CN2CCN(c3c4c(nc5ccccc35)CCCC4)CC2)C(C)(C)N1[O]` [9b, 2,2,5,5-Tetramethyl-3-[4-(1,2,3,4-tetrahydroacridin-9-yl)piperazin-1-ylmethyl]-2,5-dihydro-1H-pyrrol-1-yloxyl Radical], the “peroxyl / superoxide radical scavenging activity (in words)” value in “Peroxyl” is listed as “excellent”. The “AChEI activity (in words)” value in series [1] is “less AChEI activity than compound 1b”. Further, the “protection” value is “protection against Aβ-induced cytotoxicity” in the series on MC65 cells and “remarkable cell protection” in the series with MC65 cells (listed as 9). For the same compound, the “ROS scavenging activity (in words)” value in series [2] is “remarkable ROS scavenging activity”.

As to `CN1C(C)(C)Cc2nc3ccccc3c(N)c2C1(C)C` [24b, 1,1,2,3,3-pentamethyl-1,2,3,4-tetrahydrobenzo[b][1,6]naphthyridin-10-amine], the “peroxyl / superoxide radical scavenging activity (in words)” value in the series “Peroxyl” is “lack peroxyl radical scavenging activity”. Moreover, the “AChEI activity (in words)” value in series [1] is given as “limited AChEI activity”. The “protection” value in the series on MC65 cells is “notable protective activity”.

For `Cl.Nc1c2c(nc3ccccc13)CCCC2` [1/HCl, reference compound], the “peroxyl / superoxide radical scavenging activity (in words)” value in “Peroxyl” is listed as “limited”. Further, the “protection” value in the series on MC65 cells is recorded as “do not exhibit any protection”. Also, the “hydroxyl radical scavenging activity (in words)” value in series [3] is “limited”.

On to `CC1(C)C=C(CNc2c3c(nc4ccccc24)CCCC3)CC(C)(C)N1[O]` [compound 5, 2,2,6,6-Tetramethyl-4-[(1,2,3,4-tetrahydroacridin-9-yl)aminomethyl]-1,2,3,6-tetrahydropyridin-1-yloxyl Radical], for which the “peroxyl / superoxide radical scavenging activity (in words)” value in the series “Peroxyl” is reported as “excellent”. Further, the “AChEI activity (in words)” value in series [1] was “less AChEI activity than compound 1b”. The “protection” value in the series with MC65 cells is given as “protection against Aβ-induced cytotoxicity”. Also, the “ROS scavenging activity (in words)” value in series [2] was “remarkable ROS scavenging activity”.

As for `COc1ccc(CN2CCN(c3c4c(nc5ccccc35)CCCC4)CC2)c(OC)c1OC` [compound 13, 9-[4-(2,3,4-trimethoxybenzyl)piperazin-1-yl]-1,2,3,4-tetrahydroacridine], in “Peroxyl”, the “peroxyl / superoxide radical scavenging activity (in words)” value is given as “lack peroxyl radical scavenging activity”. Besides, the “protection” value with MC65 cells is “notable protective activity”. For the same compound, in series [2], the “ROS scavenging activity (in words)” value was “appreciable scavenging activity; also recorded: notable antioxidant activity”.

As to `CC1(C)Cc2nc3ccccc3c(N)c2C(C)(C)N1[O]` [17b, 10-amino-1,1,3,3-tetramethyl-3,4-dihydrobenzo[b][1,6]naphthyridin-2(1H)-yloxyl Radical], the “peroxyl / superoxide radical scavenging activity (in words)” value in “Peroxyl” is “excellent”. Besides, the “protection” value in the series on MC65 cells is recorded as “notable protective activity”. Further, the “hydroxyl radical scavenging activity (in words)” value in series [3] is reported as “superior”.

`CN1CCc2nc3ccccc3c(N)c2C1` [22b, 2-methyl-1,2,3,4-tetrahydrobenzo[b][1,6]naphthyridin-10-amine]: the “peroxyl / superoxide radical scavenging activity (in words)” value in “Peroxyl” is on record as “lack peroxyl radical scavenging activity”. The “protection” value in the series on MC65 cells is “notable protective activity”.

Consider `CC1(C)NC(C)(C)c2c1nc1ccccc1c2N` [19b, 1,1,3,3-tetramethyl-2,3-dihydro-1H-pyrrolo[3,4-b]quinolin-9-amine], for which the “protection” value in the series with MC65 cells was “notable protective activity; also recorded: lower protective activity”.

As to `CC1(C)Cc2nc3ccccc3c(N)c2C(C)(C)N1` [16b, 1,1,3,3-tetramethyl-1,2,3,4-tetrahydrobenzo[b][1,6]naphthyridin-10-amine], in “Peroxyl”, the “peroxyl / superoxide radical scavenging activity (in words)” value is on record as “lack peroxyl radical scavenging activity”. In addition, the “AChEI activity (in words)” value in series [1] was “inactive”. Further, in the series on MC65 cells, the “protection” value is given as “notable protective activity; also recorded: lower protective activity”.
